# Where “and” joins values, the source holds several entries; their conditions need not be identical. Identical values can stand only once.
# How the values were obtained:
# Siglec-6-Fc WT [1] = biological target: T1, Siglec-6-Fc WT (Homo sapiens, UniProt O43699); assay: Ganglioside ELISA; type: binding; conditions: for ganglioside ELISA signal, Siglec-6 WT: Figure 2c, replicates; for ELISA recognition of adsorbed ganglioside by Siglec-6 (in words): ganglioside adsorbed to microplate, outside a bilayer
# T1 construct: the Siglecs as Fc chimeras; made in house; host or cells: WT CHO cells
# T1 sequence (O43699 27-347 limits assumed): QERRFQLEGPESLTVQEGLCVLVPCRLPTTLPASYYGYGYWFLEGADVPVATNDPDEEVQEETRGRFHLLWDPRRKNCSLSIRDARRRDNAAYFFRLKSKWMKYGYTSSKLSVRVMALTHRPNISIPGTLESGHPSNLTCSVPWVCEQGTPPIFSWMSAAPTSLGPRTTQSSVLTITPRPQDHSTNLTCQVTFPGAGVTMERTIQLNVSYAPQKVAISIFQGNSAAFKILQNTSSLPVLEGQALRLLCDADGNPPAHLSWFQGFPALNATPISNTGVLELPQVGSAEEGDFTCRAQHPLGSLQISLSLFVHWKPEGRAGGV
# Experimental: (§1) Siglec-Fc constructs designed by Rodrigues et al.[30] were used in this work. Siglec-Fc constructs were expressed using WT CHO cells in cell culture media as described above with 1% HEPES. Cells incubated as described above for one-week post confluency. The supernatant was harvested and stored at 4 °C.
# (§2) The purification was heavily inspired by Rodrigues et al.[30]. The purification of the Siglec-Fcs from supernatant began with Ni^2+ affinity chromatography using an AKTA FPLC equipped with a HisTrap Excel column (GE). The column was equilibrated with fifteen column volumes (CVs) of equilibrium buffer (500 mM NaCl, 20 mM NaPO4H2, pH 7.4). The Siglec-Fc containing supernatant was then loaded in its entirety onto the column. The column was then washed with fifteen CVs of wash buffer (500 mM NaCl, 30 mM imidazole, 20 mM NaPO4H2, pH 7.4). The Siglec-Fc was then eluted in 20 in 1 mL fractions with twenty CVs of elution buffer (500 mM NaCl, 500 mM imidazole, 20 mM NaPO4H2, pH 7.4). Fractions containing Siglec-Fc were compiled and then prepared for the next stage of purification by diluting the fractions 1:4 with buffer W (100 mM Tris–HCl, 150 mM NaCl, 1 mM EDTA, pH 8.0). A Strep-Tactin column (IBA life sciences) was washed with fifteen CVs of buffer W. The Siglec-Fc-buffer W solution was then loaded in its entirety onto the column. The bound Siglec-Fc was then washed with fifteen CVs of buffer W. Siglec-Fc was eluted from the column with 15 column volumes of buffer E (100 mM Tris–HCl, 150 mM NaCl, 1 mM EDTA, 10 mM d-Desthiobiotin, pH 8.0). Fractions containing Siglec-Fc were pooled and dialyzed against PBS to remove any d-Desthiobiotin. After dialysis, Siglec-Fcs were concentrated using an ultra-centrifugal device (30 kDa MWCO) and aliquoted into 5 µg aliquots, and frozen. The Siglec-Fcs were then lyophilized overnight, and the lyophilized Siglec-Fcs were stored at −20 °C.
# (§3) Our ELISA approach was carried out similarly to previous work by Rapoport[12] and Yamakawa[44]. Ganglioside ethanol solutions (10 µM) were prepared and then transferred in 50 µL increments to a 96-well microplate. The ethanol was removed by drying the plates overnight at room temperature. The plates were then washed with PBS, dried, and then blocked with 5% (m/V) BSA PBS for 1 h. The plates were then washed with PBS and then 2 µg/mL Siglec-Fc precomplexed to Strep-Tactin (2 Siglec-Fc:1 Strep-Tactin monomer) horse radish peroxidase was added to the microplate. The complex was incubated with the plate at room temperature for 2 h. The unbound complexes were then removed by washing in PBS and the plate was developed with Sera care TMB solution. The amount of binding was then quantified by using the background (microplate well with no ligand) subtracted absorbance at 450 nm using a Molecular Devices SpectraMAX ® iD5.
# R122A Siglec-6-Fc [2] = biological target: T2, R122A Siglec-6-Fc (Homo sapiens, UniProt O43699, R122A); assay: Ganglioside ELISA; type: binding; conditions: Figure 2c, replicates
# T2 construct: the Siglecs as Fc chimeras; made in house; host or cells: WT CHO cells
# T2 sequence (O43699 27-347 R122A limits assumed): as the sequence (O43699 27-347 limits assumed) above, with R96A counted along it
# Experimental: as §1, §2, §3
# Siglec-1-Fc WT [3] = biological target: T3, Siglec-1-Fc WT (Homo sapiens, UniProt Q9BZZ2); assay: Ganglioside ELISA; type: binding; conditions: Figure 2c, replicates
# T3 sequence (Q9BZZ2 20-136 limits assumed): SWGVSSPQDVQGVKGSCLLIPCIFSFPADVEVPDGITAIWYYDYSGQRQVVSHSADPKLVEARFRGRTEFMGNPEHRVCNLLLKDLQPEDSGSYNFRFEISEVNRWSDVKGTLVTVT
# Experimental: as §1, §2, §3
# Siglec-7-Fc R124A [4] = biological target: T4, Siglec-7-Fc R124A (Homo sapiens, UniProt Q9Y286, R124A); assay: Ganglioside ELISA; type: binding; conditions: Figure 2c, replicates
# T4 construct: the Siglecs as Fc chimeras; made in house; host or cells: WT CHO cells
# T4 sequence (Q9Y286 19-353 R124A limits assumed): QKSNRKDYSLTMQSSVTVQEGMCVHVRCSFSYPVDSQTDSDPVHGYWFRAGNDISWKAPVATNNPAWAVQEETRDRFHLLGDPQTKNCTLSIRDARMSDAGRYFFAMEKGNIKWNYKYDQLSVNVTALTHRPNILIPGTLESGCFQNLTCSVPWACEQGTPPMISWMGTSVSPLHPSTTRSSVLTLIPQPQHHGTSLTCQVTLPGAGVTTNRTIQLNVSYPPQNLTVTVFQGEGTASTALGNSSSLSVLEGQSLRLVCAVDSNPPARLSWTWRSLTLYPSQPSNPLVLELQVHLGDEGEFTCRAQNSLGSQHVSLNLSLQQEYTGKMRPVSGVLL
# Experimental: as §1, §2, §3
# Siglec-7-Fc WT [5] = biological target: T5, Siglec-7-Fc WT (Homo sapiens, UniProt Q9Y286); assay: Ganglioside ELISA; type: binding; conditions: Figure 2c, replicates
# T5 construct: the Siglecs as Fc chimeras; made in house; host or cells: WT CHO cells
# T5 sequence (Q9Y286 19-353 limits assumed): as the sequence (Q9Y286 19-353 R124A limits assumed) above, with A106R counted along it
# Experimental: as §1, §2, §3
# Siglec-1-Fc R116A = assay: Liposome over lectin assay (LOLA); type: binding, human; conditions: Siglec-1 R (arginine mutant); replicates
# Siglec-1-Fc R116A, sequence (Q9BZZ2 20-136 R116A limits assumed): as the sequence (Q9BZZ2 20-136 limits assumed) above, with R97A counted along it
# Experimental: as §1, §2
# (§4) Siglec-Fc in PBS was adsorbed to a 96-well flat-bottom fluorescent microplate by adding 1 µg/well and incubating the plate at 4 °C overnight. The plate was then washed with PBS followed by blocking with 5% (m/V) BSA in PBS for 1 h at room temperature. The plate was again washed with PBS and 100 µM liposome in PBS was added to each well. The plate was then incubated at 37 °C for 30 min followed by washing with PBS. PBS was then added to the plate and the fluorescence intensity (λex 640 nm, λem 680 nm) of each well was measured using a Molecular Devices SpectraMAX ® iD5.
# R122A Siglec-6-Fc [6] = biological target: T2, R122A Siglec-6-Fc; assay: Liposome over lectin assay (LOLA); type: binding; conditions: Siglec-6 R (arginine mutant); replicates
# Experimental: as §1, §2, §4
# Siglec-1-Fc WT [7] = biological target: T3, Siglec-1-Fc WT; assay: Liposome over lectin assay (LOLA); type: binding; conditions: Siglec-1 WT; replicates
# Experimental: as §1, §2, §4
# Siglec-6-Fc WT [8] = biological target: T1, Siglec-6-Fc WT; assay: Liposome over lectin assay (LOLA); type: binding; conditions: Siglec-6 WT; replicates
# Experimental: as §1, §2, §4
# Siglec-7-Fc R124A [9] = biological target: T4, Siglec-7-Fc R124A; assay: Liposome over lectin assay (LOLA); type: binding; conditions: Siglec-7 R (arginine mutant); replicates
# Experimental: as §1, §2, §4
# Siglec-7-Fc WT [10] = biological target: T5, Siglec-7-Fc WT; assay: Liposome over lectin assay (LOLA); type: binding; conditions: Siglec-7 WT; replicates
# Experimental: as §1, §2, §4
Compound,fold difference in binding to Siglec-6 between 5 and GM3 (Siglec-6-Fc WT [1]; by ELISA) [fold],"ganglioside ELISA signal, Siglec-6 R (R122A Siglec-6-Fc [2])","ganglioside ELISA signal, Siglec-1 WT (Siglec-1-Fc WT [3])","ganglioside ELISA signal, Siglec-6 WT (Siglec-6-Fc WT [1])",ELISA recognition of adsorbed ganglioside by Siglec-6 (in words) (Siglec-6-Fc WT [1]),"ganglioside ELISA signal, Siglec-7 R (Siglec-7-Fc R124A [4])","ganglioside ELISA signal, Siglec-7 WT (Siglec-7-Fc WT [5])","LOLA: GLL binding, fluorescence plate reader (Fig. 2e) (Siglec-1-Fc R116A)","LOLA: GLL binding, fluorescence plate reader (Fig. 2e) (R122A Siglec-6-Fc [6])","LOLA: GLL binding, fluorescence plate reader (Fig. 2e) (Siglec-1-Fc WT [7])","LOLA: GLL binding, fluorescence plate reader (Fig. 2e) (Siglec-6-Fc WT [8])","LOLA: GLL binding, fluorescence plate reader (Fig. 2e) (Siglec-7-Fc R124A [9])","LOLA: GLL binding, fluorescence plate reader (Fig. 2e) (Siglec-7-Fc WT [10])"
CCCCCCCCCCCCCCCCOCC(COCCCCCCCCCCCCCCCC)OCc1cn(CCO[C@@H]2O[C@H](CO)[C@@H](O[C@@H]3O[C@H](CO)[C@H](O)[C@H](O[C@]4(C(=O)O)C[C@H](O)[C@@H](NC(C)=O)[C@H]([C@H](O)[C@H](O)CO)O4)[C@H]3O)[C@H](O)[C@H]2O)nn1 [nGL 5],1.5,–,–,–,–,–,–,–,–,–,–,–,–
GD1a,–,0.08 and 0.06 and 0.05,0.75 and 1.01 and 0.87,-0.08 and 0.02 and 0.01 and -0.06,did not recognize,0.05 and 0 and -0.01,0.27 and 0.32 and 0.24 and 0.37,8.88 and 7.01 and 5.82 and 9.99 and 5.45,37.34 and 37.32 and 38.57 and 41.15 and 44.1,13.17 and 9.49 and 10.37 and 14.33 and 18.05,28.61 and 32.95 and 30.67 and 25.13 and 23.55,6.47 and 10.42 and 11.8 and 5.25 and 10.13,7.1 and 6.68 and 9.94 and 10.73 and 13.26
GD1b,–,0.07 and 0.09 and 0.06 and 0.08,0.52 and 0.66 and 0.64 and 0.62,-0.04 and 0.01,–,0 and -0.01 and -0.02,0.41 and 0.39 and 0.38,–,–,–,–,–,–
GD3,–,0.22 and 0.2,0.76 and 0.85 and 0.8 and 0.82,0.04 and 0.09 and 0.03,did not recognize,0.01 and -0.01 and -0.02,0.74 and 0.73 and 0.7 and 0.66,6.08 and 3.44 and 4.47 and 3.34 and 3.26,36.87 and 29.95 and 29.9 and 34.98 and 32.24,9.49 and 6.85 and 10.11 and 9.9 and 7.11,33.08 and 30.39 and 25.39 and 23.72 and 21.46,-0.64 and 18.58 and 8.22 and 12.6 and 8.15,10.57 and 10.04 and 18 and 18.66 and 20.44
GM1,–,0.02 and 0.03,0.39 and 0.55 and 0.5 and 0.54,-0.03 and -0.04 and -0.05 and -0.02,did not recognize,0 and -0.01 and 0.03,0.04 and 0.05 and 0.01 and 0.03,6.6 and 6.11 and 3.97 and 6.44 and 3.68,17.43 and 40.61 and 36.66 and 31.85 and 32.16,5.66 and 12.97 and 11.61 and 4.8 and 8.91,18.34 and 20.42 and 17.75 and 12.02 and 17.78,2.83 and 4.02 and 10.31 and 3.55 and 12.57,6.49 and 5.21 and 2.94 and 8.58 and 5.66
GM2,–,0.04 and 0.05 and 0.06 and 0.07,0.89 and 1.09 and 1.03 and 1.06,0 and 0.04 and 0.02 and 0.03,–,-0.01 and 0 and -0.02,0.12 and 0.09 and 0.1 and 0.06,–,–,–,–,–,–
GM3,–,0.34 and 0.37 and 0.41 and 0.4,0.99 and 1.04 and 1.15 and 1.05,0.27 and 0.3 and 0.26,interacted weakly,-0.02 and 0,0.61 and 0.6 and 0.68 and 0.7,–,–,–,–,–,–
GM4,–,0.26 and 0.23 and 0.24 and 0.28,0.62 and 0.66 and 0.72 and 0.59,0.22 and 0.25 and 0.27 and 0.23,interacted weakly,-0.01 and 0 and -0.02,0.52 and 0.45 and 0.53 and 0.58,–,–,–,–,–,–
GQ1b,–,0.11 and 0.1 and 0.13 and 0.12,0.15 and 0.21 and 0.24 and 0.23,-0.1 and -0.02 and -0.09 and -0.12,did not recognize,-0.01 and 0,0.66 and 0.63 and 0.69,6.93 and 2.97 and 4.43 and 6.13 and 5.67,25.13 and 35.2 and 35.69 and 28.06 and 30.69,10.86 and 11.87 and 9.36 and 23.13 and 11.98,19.03 and 15.89 and 21.18 and 22.9 and 35.39,6.14 and 4.56 and 5.96 and 16.03 and 20.32,15.3 and 24.18 and 22.56 and 26.04 and 30.34
GT1b,–,0.11 and 0.08 and 0.1 and 0.13,0.25 and 0.3 and 0.43 and 0.46,-0.04 and -0.01 and -0.09 and -0.11,did not recognize,-0.01 and -0.02,0.49 and 0.55 and 0.5,–,–,–,–,–,–

# Source: PMC10122656, “Siglec-6 mediates the uptake of extracellular vesicles through a noncanonical glycolipid binding pocket” (Nature Communications, 2023)
